Like-named read-outs stand apart in the source and are kept apart here.
Legend:
[1] = test system: HIV-1 IIIB; test: Anti-HIV assay against wild-type HIV-1 (IIIB) in MT-4 cells, MTT method; format: cell-based; settings: for SI (selectivity index, ratio CC50/EC50 (WT)): CC50/EC50 WT HIV-1 IIIB
Procedure: (§1) Untreated HIV- and mock-infected cell samples were included as controls. […] Five days after infection, the viability of mock- and HIV-infected cells was examined spectrophotometrically using the MTT assay. […] All data were calculated using the median absorbance value of three wells.

[2] = test system: HIV-1 L100I mutant strain; test: Anti-HIV assay against L100I mutant strain in MT-4 cells; format: cell-based; settings: Human immunodeficiency virus 1, MT4, read-out: EC50 L100I
Procedure: (§2) Evaluation of the antiviral activity of the compounds against HIV in MT-4 cells was performed using the MTT assay as previously described [24, 25]. […] Prior to use in our assays, every freshly grown virus stock was the subject of a genotypic analysis. In addition to the genotypic analysis, every stock was subject to a phenotypic analysis using a panel of relevant reference compounds in MT-4 cells. […] Stock solutions (10× final concentration) of test compounds were added in 25 μL volumes to two series of triplicate wells so as to allow simultaneous evaluation of their effects on mock- and HIV-infected cells at the beginning of each experiment. Serial 5-fold dilutions of test compounds were made directly in flat-bottomed 96-well microtiter trays using a Biomek 3000 robot (Beckman instruments, Fullerton, CA). Untreated HIV- and mock-infected cell samples were included as controls. HIV stock (50 μL) at 100–300 CCID50 (50% cell culture infectious doses) and culture medium (final 200 μL volume per well) were added to either the infected or mock-infected wells of the microtiter tray. Mock-infected cells were used to evaluate the effects of test compounds on uninfected cells in order to assess the cytotoxicity of the test compounds. Exponentially growing MT-4 cells were centrifuged for 5 min at 220× g and the supernatant was discarded. The MT-4 cells were resuspended at 6 × 10^5 cells/mL and 50 μL volumes were transferred to the microtiter tray wells. Five days after infection, the viability of mock- and HIV-infected cells was examined spectrophotometrically using the MTT assay. The MTT assay is based on the reduction of yellow colored 3-(4,5-dimethylthiazol-2-yl)-2,5-diphenyltetrazolium bromide (MTT) (Acros Organics, Geel, Belgium) by mitochondrial dehydrogenase activity in metabolically active cells to a blue-purple formazan that can be measured spectrophotometrically. The absorbances were read in an eight-channel computer-controlled photometer (Infinite M1000, Tecan, Männedorf, Switzerland) at two wavelengths (540 and 690 nm). All data were calculated using the median absorbance value of three wells.

[3] = test system: HIV-1 Y181C mutant strain; test: Anti-HIV assay against Y181C mutant strain in MT-4 cells; format: cell-based; settings: Human immunodeficiency virus 1, MT4, read-out: EC50 Y181C
Procedure: as §2

[4] = Cytotoxicity in mock-infected MT-4 cells, MTT method; settings: human, mock-infected (uninfected) MT-4 cells
Procedure: as §1

[5] = test system: HIV-1 F227L + V106A mutant strain; test: Anti-HIV assay against double mutant F227L + V106A in MT-4 cells; format: cell-based; settings: Human immunodeficiency virus 1, MT4, read-out: EC50 F227L + V106A
Procedure: as §2

[6] = test system: HIV-1 E138K mutant strain; test: Anti-HIV assay against E138K mutant strain in MT-4 cells; format: cell-based; settings: Human immunodeficiency virus 1, MT4, read-out: EC50 E138K
Procedure: as §2

[7] = test system: HIV-1 K103N mutant strain; test: Anti-HIV assay against K103N mutant strain in MT-4 cells; format: cell-based; settings: Human immunodeficiency virus 1, MT4, read-out: EC50 K103N
Procedure: as §2

[8] = test system: HIV-1 K103N + Y181C mutant strain; test: Anti-HIV assay against double mutant K103N + Y181C in MT-4 cells; format: cell-based; settings: Human immunodeficiency virus 1, MT4, read-out: EC50 K103N + Y181C
Procedure: as §2

[9] = Human immunodeficiency virus 1, IIIB, MT4, read-out: EC50 HIV-1 IIIB
[10] = Human immunodeficiency virus 1, MT4, wild-type HIV-1 IIIB, MT-4 cells, protection against HIV-induced cytopathogenicity, read-out: EC50 HIV-1 IIIB

**Q.** Which EC50 [1, 9] does the source give for `N#Cc1ccc(Nc2nccc(C(C#N)c3ccc(C#N)cc3)n2)cc1` (centres unmarked) [Compound A1, 4-(4-(cyano-(4-cyanophenyl)methyl)-pyrimidin-2-ylamino)benzonitrile] here?
**A.** 3270 ± 2250 nM

**Q.** What about the EC50 [2] of the same compound?
**A.** ≥ 12300 nM

**Q.** And the EC50 [3]?
**A.** 11300 ± 1510 nM

**Q.** And the CC50 at 5 days [4]?
**A.** 32700 ± 9900 nM

**Q.** And the EC50 [5]?
**A.** > 32700 nM

**Q.** And the EC50 [6]?
**A.** > 32700 nM

**Q.** And the EC50 [7]?
**A.** > 32700 nM

**Q.** And the EC50 [8]?
**A.** > 32700 nM

**Q.** What does the source list for `Cc1cc(C(C#N)c2ccnc(Nc3ccc(C#N)cc3)n2)ccc1C#N` (centres unmarked) [Compound A2, 4-(4-(cyano-(3-methyl-4-cyanophenyl)methyl)-pyrimidin-2-ylamino)benzonitrile]?
**A.** SI (selectivity index, ratio CC50/EC50 (WT)) ([1]; MT-4 cells): 14; EC50 [1, 9]: 1170 ± 340 nM; EC50 [2]: > 16100 nM; EC50 [3]: > 16100 nM; CC50 at 5 days [4]: 16100 ± 3600 nM; EC50 [5]: > 16100 nM; EC50 [6]: > 16100 nM; EC50 [7]: > 16100 nM; EC50 [8]: > 16100 nM; melting point: 223.7 to 224.9 °C

**Q.** For `Cc1cc(C#N)ccc1C(C#N)c1ccnc(Nc2ccc(C#N)cc2)n1` (centres unmarked) [Compound A3, 4-(4-(cyano-(2-methyl-4-cyanophenyl)methyl)-pyrimidin-2-ylamino)benzonitrile], which “SI (selectivity index, ratio CC50/EC50 (WT))” value ([1]; MT-4 cells) is on record?
**A.** 157

**Q.** And the EC50 [1, 9]?
**A.** 69 ± 8 nM

**Q.** And the “fold increase of antiviral activity compared with A2” value ([1]; WT HIV-1 IIIB, relative to A2)?
**A.** 17 fold

**Q.** And the EC50 [2]?
**A.** 5030 ± 550 nM

**Q.** And the EC50 [3]?
**A.** 1710 ± 130 nM

**Q.** And the CC50 at 5 days [4]?
**A.** 10900 ± 3600 nM

**Q.** What about the EC50 [5] of the same compound?
**A.** > 10900 nM

**Q.** And the EC50 [6]?
**A.** 3040 ± 390 nM

**Q.** And the EC50 [7]?
**A.** 1960 ± 450 nM

**Q.** What about the EC50 [8] of the same compound?
**A.** > 10900 nM

**Q.** And the melting point?
**A.** 213.5 to 214.6 °C

**Q.** Which EC50 [1, 9] does the source give for `N#Cc1ccc(Nc2nccc(C(C#N)c3ccc(C#N)cc3Cl)n2)cc1` (centres unmarked) [Compound A8, 4-(4-(cyano-(2-chloro-4-cyanophenyl)methyl)-pyrimidin-2-ylamino)benzonitrile] here?
**A.** 63 ± 9 nM

**Q.** What about the EC50 [2] of the same compound?
**A.** ≥ 2370 nM

**Q.** And the EC50 [3]?
**A.** 1870 ± 210 nM

**Q.** What about the CC50 at 5 days [4] of the same compound?
**A.** 4600 ± 2700 nM

**Q.** And the EC50 [5]?
**A.** > 4590 nM

**Q.** And the EC50 [6]?
**A.** 2200 ± 350 nM

**Q.** What about the EC50 [7] of the same compound?
**A.** 2130 ± 220 nM

**Q.** What about the EC50 [8] of the same compound?
**A.** > 4590 nM

**Q.** Which results are given for `Cc1c(C(C#N)c2ccnc(Nc3ccc(C#N)cc3)n2)ccc(C#N)c1Cl` (centres unmarked) [Compound A11, 4-(4-(cyano-(2-methyl-3-chloro-4-cyanophenyl)methyl)-pyrimidin-2-ylamino)benzonitrile]?
**A.** EC50 [1, 9]: 300 ± 30 nM; EC50 [2]: 2320 ± 480 nM; EC50 [3]: > 6110 nM; CC50 at 5 days [4]: 6100 ± 500 nM; EC50 [5]: > 6110 nM; EC50 [6]: > 6110 nM; EC50 [7]: > 6110 nM; EC50 [8]: > 6110 nM

**Q.** What does the source list for `Cc1cc(C#N)c(Br)cc1C(C#N)c1ccnc(Nc2ccc(C#N)cc2)n1` (centres unmarked) [Compound A12, 4-(4-(cyano-(2-methyl-5-bromo-4-cyanophenyl)methyl)-pyrimidin-2-ylamino)benzonitrile]?
**A.** EC50 [1, 9]: 240 ± 40 nM; EC50 [2]: > 13200 nM; EC50 [3]: 2780 ± 360 nM; CC50 at 5 days [4]: 13200 ± 1600 nM; EC50 [5]: > 13200 nM; EC50 [6]: 3730 ± 590 nM; EC50 [7]: 2520 ± 420 nM; EC50 [8]: > 13200 nM

**Q.** What does the source list for `O=C1Nc2ccc(Cl)cc2[C@@](C#CC2CC2)(C(F)(F)F)O1` [Efavirenz, efavirenz, reference compound]?
**A.** SI (selectivity index, ratio CC50/EC50 (WT)) ([1]; MT-4 cells): >3939; EC50 [1, 10]: 3 ± 1 nM; EC50 [2]: 40 ± 8 nM; EC50 [3]: 6 ± 1 nM; CC50 at 5 days [4]: > 6300 nM; EC50 [5]: 280 ± 70 nM; EC50 [6]: 5 ± 2 nM; EC50 [7]: 80 ± 10 nM; EC50 [8]: 240 ± 60 nM

**Q.** Which results are given for `Cc1cc(C#N)cc(C)c1Oc1nc(Nc2ccc(C#N)cc2)nc(N)c1Br` [Etravirine, etravirine, reference compound]?
**A.** EC50 [1, 9]: 5 ± 1 nM; EC50 [2]: 8 ± 2 nM; EC50 [3]: 17 ± 3 nM; CC50 at 5 days [4]: > 4600 nM; EC50 [5]: 14 ± 5 nM; EC50 [6]: 8 ± 4 nM; EC50 [7]: 3 ± 1 nM; EC50 [8]: 40 ± 10 nM

**Q.** For `Cc1ccnc2c1NC(=O)c1cccnc1N2C1CC1` [Nevirapine, nevirapine, reference compound], which EC50 [1, 10] is on record?
**A.** 200 ± 100 nM

**Q.** And the EC50 [2]?
**A.** 980 ± 390 nM

**Q.** What about the CC50 at 5 days [4] of the same compound?
**A.** > 15000 nM

**Q.** And the EC50 [5]?
**A.** ≥ 4280 nM

**Q.** And the EC50 [6]?
**A.** 200 ± 150 nM

**Q.** And the EC50 [7]?
**A.** 4700 ± 630 nM

**Q.** And the EC50 [8]?
**A.** > 15000 nM

**Q.** Which results are given for `Cc1cc(/C=C/C#N)cc(C)c1Nc1ccnc(Nc2ccc(C#N)cc2)n1` [Rilpivirine, rilpivirine, reference compound]?
**A.** SI (selectivity index, ratio CC50/EC50 (WT)) ([1]; MT-4 cells): 3747; EC50 [1, 9]: 1.6 ± 0.3 nM; EC50 [2]: 2 ± 1 nM; EC50 [3]: 3 ± 1 nM; CC50 at 5 days [4]: 5900 ± 300 nM; EC50 [5]: 40 ± 10 nM; EC50 [6]: 3 ± 1 nM; EC50 [7]: 1 ± 0.2 nM; EC50 [8]: 9 ± 2 nM

From PMC7180830, “Scaffold Hopping in Discovery of HIV-1 Non-Nucleoside Reverse Transcriptase Inhibitors: From CH(CN)-DABOs to CH(CN)-DAPYs” (Molecules, 2020)
